Laboratory results published in patent US20250064886A1, “CARDIOVASCULAR AND CEREBROVASCULAR DRUG AND USE THEREOF” (HANGZHOU ADAMERCK PHARMLABS INC., priority 2021, published 2025).
Values joined by “and” are separate entries in the source; they are usually repeats but may differ in a detail not shown here. Equal values may be shown once.

Columns and labels:
tryptase = assay: Sensitization risk: tryptase expression (OD, BAPNA) in zebrafish (Example 2); type: in vivo; details: for Sensitization risk, in words: 500 ng/tail; for Relative sensitization risk (compared with positive control group) / Sensitization risk (%) / Absorbance value (OD value), parallel wells 1-6 / Absorbance value (OD value), mean: 500 ng/tail intravenous; for Absorbance value (OD value), parallel wells 1-6: 28° C. 1 day, single wells; for Absorbance value (OD value), mean: mean of 6 wells
Experimental: Experimental method: 2 dpf wild type AB strain zebrafish were randomly selected and placed in a 24-well plate, with each group 6 parallel wells and 10 zebrafish per well. The zebrafish were injected intravenously with samples at a dose of 500 ng/tail and the positive control “C48/80” at a concentration of 1.5 μg/mL, while normal control group was set up. Each well has a capacity of 1 mL.
All experimental groups were given BAPNA by dissolving it in the water. After treatment at 28° C. for 1 day, the liquid was transferred to 96-well plates with 200 μL/well, and the relative absorbance values (OD values) of the expression levels of tryptase in each experimental group were detected using an microplate reader, and the results of the statistical analysis of the OD values were used to evaluate the risk of sensitization by sample. Statistical results were expressed as mean±SE.
Statistical analysis was performed using SPSS software, and p<0.05 indicates significant differences.

[1] = test system: vascular endothelial injury induced thrombosis model in zebrafish; assay: Preventative effect on vascular endothelial injury induced thrombosis, ponatinib zebrafish model (Example 1); type: in vivo; details: 4.00 ng/tail injected
Experimental: Experimental method: 420 tails of 5 dpf wild type AB strain zebrafish were randomly selected and placed in a six-well plate, with 30 fish per well (experimental group). The fish were injected with compound (1), compound (2), compound (3), compound (4), compound (5), compound (6), compound (7), compound (8), compound (9), compound (10), and compound (11) (structural formula shown in Table 1) at a dose of 4.00 ng/tail, with positive control drug acetylsalicylic acid being administered by dissolving it in water at a concentration of 30.0 µg/mL. Normal control group (i.e. zebrafish treated with standard diluted water) and model control group were set up, with a capacity of 3 mL per well (experimental group). Except for normal control group, the remaining experimental groups were all given Punatinib by dissolving it in water to induce vascular endothelial injury induced thrombosis model in zebrafish. The zebrafish were stained with o-dianisidine after co-treatment with ponatinib and samples for a period of time under incubation conditions at 28° C.
After staining, 10 zebrafish in each group were randomly selected and photographed under the microscope, and the intensity of cardiac erythrocyte staining in zebrafish was analyzed using NIS-Elements D 3.20 advanced image-processing software, and the samples were evaluated for the preventative effect on vascular endothelial injury induced thrombosis by the statistical results of cardiac erythrocyte staining intensity.
The preventative effect on thrombosis is calculated as follows: […]
Statistical analysis was performed using SPSS software, and p<0.05 indicates significant differences

[2] = test system: arteriovenous bypass thrombosis in rats; assay: Arteriovenous bypass thrombosis in rats (Example 4); type: in vivo, rat
Experimental: Grouping: Divided into 5 groups, with 10 animals in each group. The model control group was given with solvent, and the test drug compound (1) and the positive control were given intravenously once a day for consecutive 3 d. The modeling started 30 min after the last dose.
Model preparation: 50 SD male rats were anesthetized with sodium pentobarbital at a dose of 60 mg/kg via ip. The rat was fixed in the supine position, and the skin was incised at the midline of the neck; the fascia and muscle tissues were separated, the left common carotid artery and the right external jugular vein were dissociated, and the arterio-venous (A-V) bypass surgery was performed using the polyethylene tubing with a built-in thread. The arterial clip was used to clamp the proximal end of the carotid artery, and one end of the polyethylene tubing was inserted into the artery, and another end was inserted into the vein, thereby completing the bypass surgery. 30 minutes after the last dose, the arterial clip was opened, and blood flowed from the left common carotid artery to the right external jugular vein through the bypass tubing, and the blood flow formed a bypass circulation, and the thrombus was taken out 15 min later.
(§1) Detection index: the blood flow was open after 15 min, the thread was taken out, the residual liquid was sucked dry, the thread attached with thrombus was weighed and the wet weight of thrombus was calculated; the dry weight of thrombus was weighed and calculated after bake-drying in the oven at 50° C. Thrombosis inhibition rate was calculated. Tails were clipped at the end of the experiment to detect bleeding time.

rats = assay: Bleeding time in rats, tail clipping (Example 4); type: in vivo, rat
Experimental: as §1, with “Grouping: Divided into 5 groups, with 10 animals in each group. […] The modeling started 30 min after the last dose. Detection” for “Detection”

[3] = test system: rats with focal cerebral ischemia (MCAO)/reperfusion; assay: Preventative administration, cerebral ischemia-reperfusion injury MCAO/R in rats (Example 5); type: in vivo, rat
Experimental: Experimental method: SD rats were randomly divided into six groups, i.e., pseudosurgery group, model control group, positive control drug ozagre (6 mg/kg) group, and administration drug compound (1) high-dose (67.5 mg/kg) group, medium-dose (22.5 mg/kg) group, and low-dose (7.5 mg/kg) group. The administration group was pre-administered via tail vein injection, while the pseudosurgery group and model control group were given equal volumes of physiological saline once a day for 3 consecutive days. 10 minutes after the last administration, a rat MCAO/R model was established and performed reperfusion 2 hours post ischemia. 24 hours after MCAO reperfusion, the neurobehavioral scores of rats were performed to determine their neurological function; the cerebral infarction rate and cerebral water content in rats were determined using 2,3,5-triphenyltetrazolium chloride (TTC) staining method.

[4] = test system: cerebral ischemic injury in rats caused by autologous thrombus and thrombin; assay: Ischemic brain injury in rats caused by autologous thrombus and thrombin (Example 6); type: in vivo, rat
Experimental: The drug was administered once by slow tail vein injection (1 ml per minute) 2 h after modeling, and the decrease in blood flow was monitored after the injection of thrombin, and 120 min after the administration of the drug. Neurobehavioral scoring was performed to determine the neurological function of rats after 24 h. The cerebral infarction rate and cerebral water content of rats were determined using 2,3,5-triphenyltetrazolium chloride (TTC) staining method, and the pathological damage of the brain of rats administered with drug 2 h after cerebral ischemia was observed by hematoxylin-eosin (HE) staining.

[5] = test system: vascular endothelial injury induced thrombosis model in zebrafish; assay: Preventative effect on vascular endothelial injury induced thrombosis, ponatinib zebrafish model (Example 1); type: in vivo; details: 30.0 μg/mL dissolved in water
[6] = test system: vascular endothelial-injury thrombosis model in zebrafish; assay: Preventative effect of compound (1) on vascular endothelial injury induced thrombosis in zebrafish (Example 3); type: in vivo; details: 30 μg/mL in water
Experimental: Experimental method: Wild-type AB strain zebrafish were treated with 4 μg/mL punatinib for 18 h to establish vascular endothelial-injury thrombosis model in zebrafish. 150 of 5 dpf wild-type AB strain zebrafish were randomly selected and placed in six-well plates with 30 fish per well (experimental group). The zebrafish were injected with compound (1) at a dose of 2.06 ng/tail, and 6.18 ng/tail, and the positive control drug acetylsalicylic acid was given by dissolving it in water with a concentration of 30 µg/mL, while the normal control group (i.e., zebrafish treated with standard dilution water) and the model control group were set up, and the volume of each well (experimental group) was 3 mL. Except for normal control group, the remaining experimental groups were all given Punatinib by dissolving it in water to induce vascular endothelial injury thrombosis model in zebrafish. The zebrafish were co-treated with compound (1) and punatinib for a period of time under incubation condition at 28° C., and then stained with o-dianisidine. After staining, 10 zebrafish were randomly selected from each group and photographed under the microscope. The intensity of cardiac erythrocyte staining in zebrafish was analyzed using NIS-Elements D 3.10 advanced image-processing software, and the preventative effect of compound (I) on vascular endothelial injury thrombosis was evaluated based on the statistical results of cardiac erythrocyte staining intensity. The preventative effect on thrombosis is calculated as follows: […]
Statistical analysis were performed using Analysis of Variance and Dunnett's t-test, and p<0.05 indicates a significant difference, providing a representative experimental plot.

[7] = 16 mg/kg i.v. once a day 3 d, in g (unit assumed)

OCC1OC2OC3C(CO)OC(OC4C(CO)OC(OC5C(CO)OC(OC6C(CO)OC(OC7C(CO)OC(OC8C(CO)OC(OC9C(CO)OC(OC1C(O)C2O)C(O)C9O)C(O)C8O)C(O)C7O)C(O)C6O)C(O)C5O)C(O)C4O)C(O)C3O (centres unmarked) [Compound (10)]
Sensitization risk, in words (tryptase): low sensitization risk
Relative sensitization risk (compared with positive control group) (tryptase): 33%
Sensitization risk (%) (tryptase): 27.8%
Absorbance value (OD value), parallel wells 1-6 (tryptase): 0.07115 and 0.06947 and 0.06795 and 0.07585 and 0.06445
Absorbance value (OD value), mean (tryptase): 0.069
Preventative effect on thrombosis (%) [1]: 64%
Cardiac erythrocyte staining intensity (pixels, mean ± SE) ([1]; n = 10): 4326 ± 383 pixels
Cardiac erythrocyte staining intensity (pixels, mean ± SE) ([1]; n = 10, listed as compound (10)): 4326 pixels

O=C(O)/C=C/c1ccc(Cn2ccnc2)cc1 [Ozagre, ozagrel, reference compound]
Dry weight inhibition rate (%) ([2]; 16 mg/kg i.v.): 34.1%
Wet weight inhibition rate (%) ([2]; 16 mg/kg i.v.): 34%
Dry weight of thrombus [2, 7]: 0.0054 ± 0.0018
Wet weight of thrombus [2, 7]: 0.0208 ± 0.0041
Bleeding time (rats; 16 mg/kg i.v.): 740.8 ± 224 s
Effect on the bleeding time in rats, in words (rats; intravenous, compared with model control group): significantly prolonged
Cerebral infarction rate (%) ([3]; 6 mg/kg tail vein, once a day 3 days before MCAO/R, 24 h after reperfusion, mean ± SD, n = 8): 14.39 ± 8.14 %
Behavioral score ([3]; 6 mg/kg, preventative): 1.50 ± 0.56
Cerebral water content (%) ([3]; 6 mg/kg, preventative, tail vein 3 days): 78.42 ± 3.73 %

Urokinase [reference compound]
Cerebral blood flow: Percentage decrease after injection of thrombin (%) ([4]; 5000 U/kg group, value before administration): 50.10 ± 7.94%
Cerebral infarction rate (%) ([4]; 5000 U/kg i.v.): 9.72 ± 9.89 %
Cerebral water content (%) ([4]; 5000 U/kg i.v.): 79.78 ± 0.72 %
Cerebral blood flow: Percentage decrease two hours after administration (%) ([4]; 5000 U/kg i.v. once 2 h after modeling): 37.12 ± 4.49 %
Pathological damage score ([4]; 5000 U/kg i.v., HE staining): 1.75 ± 0.86
Behavioral score ([4]; 5000 U/kg i.v., after 24 h): 1.60 ± 0.70

CC(=O)N[C@@H](CSCC1OC2OC3C(CSC[C@H](NC(C)=O)C(=O)[O-])OC(OC4C(CSC[C@H](NC(C)=O)C(=O)[O-])OC(OC5C(CSC[C@H](NC(C)=O)C(=O)[O-])OC(OC6C(CSC[C@H](NC(C)=O)C(=O)[O-])OC(OC7C(CSC[C@H](NC(C)=O)C(=O)[O-])OC(OC8C(CSC[C@H](NC(C)=O)C(=O)[O-])OC(OC9C(CSC[C@H](NC(C)=O)C(=O)[O-])OC(OC1C(O)C2O)C(O)C9O)C(O)C8O)C(O)C7O)C(O)C6O)C(O)C5O)C(O)C4O)C(O)C3O)C(=O)[O-].[Na+].[Na+].[Na+].[Na+].[Na+].[Na+].[Na+].[Na+] (some centres unmarked) [Compound (2)]
Sensitization risk, in words (tryptase): no or substantially no sensitization risk
Relative sensitization risk (compared with positive control group) (tryptase): −4%
Sensitization risk (%) (tryptase): −3.7%
Absorbance value (OD value), parallel wells 1-6 (tryptase): 0.05655 and 0.05255 and 0.04865 and 0.04785 and 0.05085 and 0.05405
Absorbance value (OD value), mean (tryptase): 0.052
Preventative effect on thrombosis (%) [1]: 39%
Cardiac erythrocyte staining intensity (pixels, mean ± SE) ([1]; n = 10): 3655 ± 318 pixels
Cardiac erythrocyte staining intensity (pixels, mean ± SE) ([1]; n = 10, listed as compound (2)): 3655 pixels

CC(=O)Oc1ccccc1C(=O)O [Acetylsalicylic acid, acetylsalicylic acid, reference compound]
Preventative effect on thrombosis (%) [5]: 101%
Cardiac erythrocyte staining intensity (pixels, mean ± SE) ([5]; n = 10): 5345 ± 228 pixels
Thromboprophylactic effect (%) [6]: 85%
Cardiac erythrocyte staining intensity (pixels, mean ± SE) ([6]; n = 10): 4655 ± 136 pixels
